{"source": "patent US9492376B2", "about": "“Polymer-conjugated albumin hydrogels for controlled release of therapeutic agents” (TECHNION RESEARCH AND DEVELOPMENT FOUNDATION LTD., priority 2008, dated 2016)", "key": {"[1]": {"assay": "Drug release from hydrogels, with diffusion model fitting", "assay_type": "physicochemical", "settings": "for Average drug release (last 30 min), normalized amount: released from purified mono-PEGylated albumin hydrogels (10 kDa PEG), insulins fluorescein-labelled, FIG. 5", "description": "Both LEVEMIR® and […]® were fluorescently labelled by 5 mg/ml NHS-fluorescein (Pierce, Illinois, U.S.A.) in DMSO, with a molar ratio of 15:1 NHS-fluorescein to insulin. The solution was allowed to react for 5 hr in 4° C. and dialysed (Cellu-Sep H1, 1-kDaMW cutoff, Texas, U.S.A.) against PBS with 0.1% (w/v) of sodium azide with DMSO in decreasing concentrations of DMSO (10-0%) for 1 week.\nThe drug was saturated in disk-shaped hydrogel constructs prepared from PEG-DA or PEGylated proteins, that were formed into hydrogels by photopolymerization using 0.1% (w/v) Irgacure™ 2959 (Ciba Specialty Chemicals, Basel, Switzerland) and UV light (λ=365 nm, 4-5 mW/cm^2) exposure for 5 min as described elsewhere (Gonen-Wadmany et al., 2007). The hydrogel constructs were produced from six different hydrogel precursor solutions, including: (i) purified mono-PEGylated albumin in PEG-DA; (ii) non-purified mono-PEGylated albumin (containing wild-type and multi-PEGylated albumin) in PEG-DA; (iii) multi-PEGylated albumin in PEG-DA; (iv) wild-type albumin in PEG-DA; (v) PEG-DA; (vi) PEGylated fibrinogen in PEG-DA. In all cases, the protein (albumin or fibrinogen) concentration was 8.5 mg/ml, and the PEG-DA was added to reach a total PEG concentration of 7%.\nDrug release from the hydrogel constructs into the supernatant was measured fluorescently (excitation at […]) in PBS with 0.1% (w/v) of sodium azide under constant agitation at 37° C. using a Varioscan plate-reader (Thermo Electron Corporation, Finland). (In the case of degradation experiments, 0.01 mg/ml of Trypsin (MP Biomedicals) was added to the PBS solution.) The raw data was normalized by the fluorescence intensity measured after 24 hours. The constructs were liquefied by homogenization or sonication (for multi-PEGylated albumin and fibrinogen), or by chemical means using 0.1 M NaOH, and the drug content was quantified to confirm complete drug release.\nThe drug release profiles were compared with a known model of diffusion-based release kinetics. […]"}, "[2]": {"assay": "Warfarin fluorescence and albumin binding", "settings": "for Fluorescence Intensity Ratio Comparing to Warfarin Alone: 5 mg/ml protein in PBS, 10:1 molar ratio albumin to Warfarin, ~5 hours incubation, excitation 320 nm, emission 385 nm, n = 6", "description": "The mixture was incubated for ˜5 hours before reading fluorescence emission (λ=385 nm) at a 320 nm excitation wavelength using a Varioscan spectral scanning multimode reader (Thermo Electron Corporation, Vantaa, Finland)."}, "[3]": {"assay": "Equilibrium dialysis of Warfarin with wild-type or PEGylated albumin", "assay_type": "binding", "settings": "result in words; for affinity of Warfarin to the protein by equilibrium dialysis: equilibrium at about 24 hr, compared to wild-type albumin", "description": "The two chambers of the device were separated by a dialysis membrane (12-14 kDa MW cutoff) and drug diffusion was measured by fluorescence spectroscopy. One dialysis chamber of the device was filled with 25 ml PBS solution containing 0.1% (w/v) of sodium azide (Fluka)."}, "serum albumin": {"biological_target": "serum albumin (Homo sapiens, UniProt P02768)", "settings": "cited from earlier work"}}}
{"molecule": "COc1ccc2cc([C@H](C)C(=O)O)ccc2c1", "note": "[Naproxen]", "values": [{"measurement": "release kinetics of drugs compared", "setting": "[1]; from purified mono-PEGylated albumin hydrogels (10 kDa PEG), p-value<0.05", "value": "released significantly faster"}, {"measurement": "Average drug release (last 30 min), normalized amount", "setting": "[1]", "value": "0.66±0.07"}]}
{"molecule": "PEG-Alb 1.5 kDa: bovine serum albumin multi-PEGylated with linear 1.5 kDa PEG-DA, in solution", "values": [{"measurement": "Fluorescence Intensity Ratio Comparing to Warfarin Alone", "setting": "[2]", "value": "1.6 ± 0.3"}, {"measurement": "affinity of Warfarin to the protein by equilibrium dialysis", "setting": "[3]", "value": "significantly less affinity"}]}
{"molecule": "Albumin: bovine serum albumin (MP Biomedicals), non-PEGylated control in solution", "values": [{"measurement": "Fluorescence Intensity Ratio Comparing to Warfarin Alone", "setting": "[2]", "value": "2.8 ± 0.2"}, {"measurement": "increase in Warfarin fluorescence when bound to albumin", "setting": "[2]; bovine albumin, versus unbound Warfarin", "value": 2.8, "unit": "fold"}, {"measurement": "percent of drug (Warfarin) transported through the dialysis membrane at equilibrium", "setting": "[3]; about 24 hr, albumin to Warfarin 5:1, room temperature", "value": "lowest"}]}
{"molecule": "PEG-Alb 4 kDa: bovine serum albumin multi-PEGylated with linear 4 kDa PEG-DA, in solution", "values": [{"measurement": "Fluorescence Intensity Ratio Comparing to Warfarin Alone", "setting": "[2]", "value": "1.5 ± 0.4"}, {"measurement": "affinity of Warfarin to the protein by equilibrium dialysis", "setting": "[3]", "value": "significantly less affinity"}]}
{"molecule": "PEG-Alb 10 kDa: bovine serum albumin multi-PEGylated with linear 10 kDa PEG-DA, in solution", "values": [{"measurement": "Fluorescence Intensity Ratio Comparing to Warfarin Alone", "setting": "[2]", "value": "1.5 ± 0.5"}]}
{"molecule": "ACTRAPID®: regular human insulin formulation, 100 IU/ml, Novo Nordisk; no binding affinity to serum albumin", "values": [{"measurement": "Average drug release (last 30 min), normalized amount", "setting": "[1]", "value": "0.57±0.14"}, {"measurement": "binding affinity to serum albumin", "setting": "serum albumin", "value": "no binding affinity"}]}
